From the supplement of paper PMC10307832 come the findings set out here.

What all share (experiment): relative viability (nuclei count vs DMSO), 5 days (fraction); higher = more cells survive
Compound in the experiment “XMD13-2 + OSI-027”: C1CC1C(=O)NC2=NNC3=C2C=CC(=C3)C4=CC(=CC=C4)C(=O)NC5CC5 [XMD13-2] + COc1cccc2cc(-c3nc([C@H]4CC[C@H](C(=O)O)CC4)n4ncnc(N)c34)[nH]c12 [OSI-027] (partner 0.5 µM)
The method in brief:
(§1)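 Relative viability equals treated-well nuclei counts divided by vehicle-well nuclei counts. Counts came from 4× images of lung cancer cell lines grown in 1536-well plates for 5 days after pin-tool dosing on the day after seeding. Dosing used one drug alone or a fixed anchor-drug dose plus five library-drug doses (not always all listed) in √10 steps, and values are medians of duplicate plates.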

Compound in the experiment “ALW-II-49-7 + Luminespib”: Cc1ccc(C(=O)Nc2cccc(C(F)(F)F)c2)cc1Nc1cncc(C(N)=O)c1 [ALW-II-49-7] + CCNC(=O)c1noc(-c2cc(C(C)C)c(O)cc2O)c1-c1ccc(CN2CCOCC2)cc1 [Luminespib] (partner 0.01 µM)
The method in brief:
as §1

Compound in the experiment “Dasatinib + Lapatinib”: Cc1nc(Nc2ncc(C(=O)Nc3c(C)cccc3Cl)s2)cc(N2CCN(CCO)CC2)n1 [Dasatinib] + CS(=O)(=O)CCNCc1ccc(-c2ccc3ncnc(Nc4ccc(OCc5cccc(F)c5)c(Cl)c4)c3c2)o1 [Lapatinib] (partner 2 µM)
The method in brief:
as §1

Compound in the experiment “ALW-II-49-7 + Crizotinib”: Cc1ccc(C(=O)Nc2cccc(C(F)(F)F)c2)cc1Nc1cncc(C(N)=O)c1 [ALW-II-49-7] + C[C@@H](Oc1cc(-c2cnn(C3CCNCC3)c2)cnc1N)c1c(Cl)ccc(F)c1Cl [Crizotinib] (partner 1 µM)
The method in brief: as §1

For UMC-11, the relative viability turned out to be 0.438 with XMD13-2 + OSI-027 (first compound 0.05 µM); 0.404 with XMD13-2 + OSI-027 (first compound 0.1581 µM); 0.474 with XMD13-2 + OSI-027 (first compound 0.5 µM); 0.453 with XMD13-2 + OSI-027 (first compound 1.581 µM); 0.351 with XMD13-2 + OSI-027 (first compound 5 µM); 1.19 in the experiment with ALW-II-49-7 + Luminespib (first compound 0.08 µM). Moreover, the relative viability in the experiment with ALW-II-49-7 + Luminespib (first compound 0.253 µM) is 0.939; in the experiment with ALW-II-49-7 + Luminespib (first compound 0.8 µM), 1.14; in the experiment with ALW-II-49-7 + Luminespib (first compound 2.53 µM), 0.983; with ALW-II-49-7 + Luminespib (first compound 8 µM), 1; in the experiment with Dasatinib + Lapatinib (first compound 0.005 µM), 0.877; in the experiment with Dasatinib + Lapatinib (first compound 0.01581 µM), 0.702. The relative viability in the experiment with Dasatinib + Lapatinib (first compound 0.05 µM) turned out to be 0.835; in the experiment with Dasatinib + Lapatinib (first compound 0.1581 µM) it was 0.333; in the experiment with Dasatinib + Lapatinib (first compound 0.5 µM), 0.377; with ALW-II-49-7 + Crizotinib (first compound 0.08 µM) it was 0.531; with ALW-II-49-7 + Crizotinib (first compound 0.253 µM), 0.613; with ALW-II-49-7 + Crizotinib (first compound 2.53 µM), 0.755. Besides, the relative viability with ALW-II-49-7 + Crizotinib (first compound 8 µM) turned out to be 0.553.
